Source: the OligoGym collection
Oligonucleotides are given in HELM: sugar(base)linkage, 5' to 3'; d 2'-deoxyribose, r ribose, m 2'-O-methylribose, p phosphate. ss, as = sense and antisense strand

Molecular target: UBE2K
Assay: reporter assay of Huesken 2005
Conditions: siRNA
Note: test concentration or dose not given here.

Substance	normalised inhibition (eCFP-eYFP dual reporter) [%]
RNA1{r(C)p.r(U)p.r(G)p.r(A)p.r(A)p.r(A)p.r(G)p.r(A)p.r(U)p.r(C)p.r(A)p.r(A)p.r(U)p.r(G)p.r(G)p.r(G)p.r(C)p.r(A)p.r(G)p.d(T)p.d(T)}|RNA2{r(C)p.r(U)p.r(G)p.r(C)p.r(C)p.r(C)p.r(A)p.r(U)p.r(U)p.r(G)p.r(A)p.r(U)p.r(C)p.r(U)p.r(U)p.r(U)p.r(C)p.r(A)p.r(G)p.d(G)p.d(A)}$$$RNA1{StrandType:ss}|RNA2{StrandType:as}$	79.2
RNA1{r(A)p.r(U)p.r(U)p.r(A)p.r(A)p.r(A)p.r(G)p.r(U)p.r(A)p.r(G)p.r(A)p.r(U)p.r(C)p.r(U)p.r(U)p.r(G)p.r(U)p.r(A)p.r(G)p.d(T)p.d(T)}|RNA2{r(C)p.r(U)p.r(A)p.r(C)p.r(A)p.r(A)p.r(G)p.r(A)p.r(U)p.r(C)p.r(U)p.r(A)p.r(C)p.r(U)p.r(U)p.r(U)p.r(A)p.r(A)p.r(U)p.d(T)p.d(T)}$$$RNA1{StrandType:ss}|RNA2{StrandType:as}$	45.8
RNA1{r(U)p.r(C)p.r(U)p.r(U)p.r(G)p.r(U)p.r(A)p.r(G)p.r(A)p.r(U)p.r(G)p.r(A)p.r(G)p.r(A)p.r(A)p.r(U)p.r(U)p.r(U)p.r(U)p.d(T)p.d(T)}|RNA2{r(A)p.r(A)p.r(A)p.r(A)p.r(U)p.r(U)p.r(C)p.r(U)p.r(C)p.r(A)p.r(U)p.r(C)p.r(U)p.r(A)p.r(C)p.r(A)p.r(A)p.r(G)p.r(A)p.d(T)p.d(C)}$$$RNA1{StrandType:ss}|RNA2{StrandType:as}$	84.4
RNA1{r(A)p.r(G)p.r(G)p.r(A)p.r(U)p.r(G)p.r(C)p.r(U)p.r(G)p.r(U)p.r(A)p.r(G)p.r(U)p.r(A)p.r(G)p.r(C)p.r(A)p.r(A)p.r(A)p.d(T)p.d(T)}|RNA2{r(U)p.r(U)p.r(U)p.r(G)p.r(C)p.r(U)p.r(A)p.r(C)p.r(U)p.r(A)p.r(C)p.r(A)p.r(G)p.r(C)p.r(A)p.r(U)p.r(C)p.r(C)p.r(U)p.d(G)p.d(T)}$$$RNA1{StrandType:ss}|RNA2{StrandType:as}$	92.1
RNA1{r(G)p.r(C)p.r(U)p.r(G)p.r(C)p.r(A)p.r(A)p.r(U)p.r(G)p.r(A)p.r(C)p.r(U)p.r(C)p.r(U)p.r(C)p.r(C)p.r(G)p.r(C)p.r(A)p.d(T)p.d(T)}|RNA2{r(U)p.r(G)p.r(C)p.r(G)p.r(G)p.r(A)p.r(G)p.r(A)p.r(G)p.r(U)p.r(C)p.r(A)p.r(U)p.r(U)p.r(G)p.r(C)p.r(A)p.r(G)p.r(C)p.d(T)p.d(G)}$$$RNA1{StrandType:ss}|RNA2{StrandType:as}$	87.1
RNA1{r(C)p.r(C)p.r(U)p.r(A)p.r(A)p.r(U)p.r(A)p.r(U)p.r(U)p.r(A)p.r(G)p.r(U)p.r(U)p.r(C)p.r(C)p.r(G)p.r(U)p.r(C)p.r(A)p.d(T)p.d(T)}|RNA2{r(U)p.r(G)p.r(A)p.r(C)p.r(G)p.r(G)p.r(A)p.r(A)p.r(C)p.r(U)p.r(A)p.r(A)p.r(U)p.r(A)p.r(U)p.r(U)p.r(A)p.r(G)p.r(G)p.d(A)p.d(T)}$$$RNA1{StrandType:ss}|RNA2{StrandType:as}$	74.9
RNA1{r(C)p.r(C)p.r(U)p.r(C)p.r(C)p.r(A)p.r(G)p.r(A)p.r(C)p.r(A)p.r(C)p.r(A)p.r(C)p.r(C)p.r(A)p.r(U)p.r(A)p.r(U)p.r(G)p.d(T)p.d(T)}|RNA2{r(C)p.r(A)p.r(U)p.r(A)p.r(U)p.r(G)p.r(G)p.r(U)p.r(G)p.r(U)p.r(G)p.r(U)p.r(C)p.r(U)p.r(G)p.r(G)p.r(A)p.r(G)p.r(G)p.d(T)p.d(C)}$$$RNA1{StrandType:ss}|RNA2{StrandType:as}$	66.9
RNA1{r(G)p.r(A)p.r(U)p.r(C)p.r(C)p.r(A)p.r(C)p.r(A)p.r(G)p.r(G)p.r(A)p.r(U)p.r(G)p.r(C)p.r(U)p.r(G)p.r(U)p.r(A)p.r(G)p.d(T)p.d(T)}|RNA2{r(C)p.r(U)p.r(A)p.r(C)p.r(A)p.r(G)p.r(C)p.r(A)p.r(U)p.r(C)p.r(C)p.r(U)p.r(G)p.r(U)p.r(G)p.r(G)p.r(A)p.r(U)p.r(C)p.d(A)p.d(T)}$$$RNA1{StrandType:ss}|RNA2{StrandType:as}$	67.6
RNA1{r(A)p.r(U)p.r(A)p.r(G)p.r(C)p.r(A)p.r(G)p.r(G)p.r(A)p.r(C)p.r(C)p.r(U)p.r(C)p.r(C)p.r(A)p.r(G)p.r(A)p.r(C)p.r(A)p.d(T)p.d(T)}|RNA2{r(U)p.r(G)p.r(U)p.r(C)p.r(U)p.r(G)p.r(G)p.r(A)p.r(G)p.r(G)p.r(U)p.r(C)p.r(C)p.r(U)p.r(G)p.r(C)p.r(U)p.r(A)p.r(U)p.d(T)p.d(T)}$$$RNA1{StrandType:ss}|RNA2{StrandType:as}$	69.8
RNA1{r(U)p.r(U)p.r(G)p.r(U)p.r(A)p.r(G)p.r(A)p.r(U)p.r(G)p.r(A)p.r(G)p.r(A)p.r(A)p.r(U)p.r(U)p.r(U)p.r(U)p.r(A)p.r(C)p.d(T)p.d(T)}|RNA2{r(G)p.r(U)p.r(A)p.r(A)p.r(A)p.r(A)p.r(U)p.r(U)p.r(C)p.r(U)p.r(C)p.r(A)p.r(U)p.r(C)p.r(U)p.r(A)p.r(C)p.r(A)p.r(A)p.d(G)p.d(A)}$$$RNA1{StrandType:ss}|RNA2{StrandType:as}$	55.1
RNA1{r(G)p.r(A)p.r(C)p.r(A)p.r(C)p.r(A)p.r(C)p.r(C)p.r(A)p.r(U)p.r(A)p.r(U)p.r(G)p.r(A)p.r(A)p.r(G)p.r(G)p.r(A)p.r(G)p.d(T)p.d(T)}|RNA2{r(C)p.r(U)p.r(C)p.r(C)p.r(U)p.r(U)p.r(C)p.r(A)p.r(U)p.r(A)p.r(U)p.r(G)p.r(G)p.r(U)p.r(G)p.r(U)p.r(G)p.r(U)p.r(C)p.d(T)p.d(G)}$$$RNA1{StrandType:ss}|RNA2{StrandType:as}$	64.2
RNA1{r(U)p.r(G)p.r(G)p.r(G)p.r(C)p.r(A)p.r(G)p.r(C)p.r(U)p.r(G)p.r(C)p.r(A)p.r(A)p.r(U)p.r(G)p.r(A)p.r(C)p.r(U)p.r(C)p.d(T)p.d(T)}|RNA2{r(G)p.r(A)p.r(G)p.r(U)p.r(C)p.r(A)p.r(U)p.r(U)p.r(G)p.r(C)p.r(A)p.r(G)p.r(C)p.r(U)p.r(G)p.r(C)p.r(C)p.r(C)p.r(A)p.d(T)p.d(T)}$$$RNA1{StrandType:ss}|RNA2{StrandType:as}$	44.2
RNA1{r(G)p.r(A)p.r(A)p.r(A)p.r(U)p.r(G)p.r(U)p.r(U)p.r(C)p.r(A)p.r(A)p.r(A)p.r(C)p.r(A)p.r(G)p.r(A)p.r(C)p.r(A)p.r(G)p.d(T)p.d(T)}|RNA2{r(C)p.r(U)p.r(G)p.r(U)p.r(C)p.r(U)p.r(G)p.r(U)p.r(U)p.r(U)p.r(G)p.r(A)p.r(A)p.r(C)p.r(A)p.r(U)p.r(U)p.r(U)p.r(C)p.d(G)p.d(G)}$$$RNA1{StrandType:ss}|RNA2{StrandType:as}$	76.6
RNA1{r(A)p.r(A)p.r(U)p.r(A)p.r(G)p.r(C)p.r(A)p.r(G)p.r(G)p.r(A)p.r(C)p.r(C)p.r(U)p.r(C)p.r(C)p.r(A)p.r(G)p.r(A)p.r(C)p.d(T)p.d(T)}|RNA2{r(G)p.r(U)p.r(C)p.r(U)p.r(G)p.r(G)p.r(A)p.r(G)p.r(G)p.r(U)p.r(C)p.r(C)p.r(U)p.r(G)p.r(C)p.r(U)p.r(A)p.r(U)p.r(U)p.d(T)p.d(C)}$$$RNA1{StrandType:ss}|RNA2{StrandType:as}$	56.1
